# Columns and labels:
# [1] = RP-HPLC retention time as relative hydrophobicity; format: physicochemical; conditions: 25 °C, used by the paper as measure of relative hydrophobicity
# Procedure: The RP-HPLC retention time has been widely used to represent the relative hydrophobicity of peptides in many studies.The relative hydrophobicity of the peptides was determined by the RP-HPLC retention times at 25 °C. The change in hydrophobicity of the peptides caused by D-amino acid substitutions was mainly due to the disruption of the helical structure.
# [2] = Circular dichroism (CD) secondary structure; format: physicochemical
# Text: The influence of the amino acid substitutions on the peptide secondary structure were investigated using circular dichroism (CD) spectroscopy under benign conditions (KP buffer) and under conditions designed to mimic the hydrophobic environment of the membrane (KP buffer with 50% TFE). D-amino acid substitutions reduced the helicity of the peptide analogs relative to that of peptide V13K, in both KP buffer and KP buffer with 50% TFE. […] As shown in Table 2 and Figure S1, the values of the relative helicity of peptides with polar face substitutions are in the order of K14D (76.99%) > S11D/K14D (51.33%) > S11D/K14D/T15D (38.67%). Similarly, the relative helicity of the peptides with substitutions on the non-polar face follows the same trend: A12D (70.83%) > F9D/A12D (38.26%) > F9D/A12D/V16D (36.41%). Since the values of the relative helicity of the peptides with D-amino acid substitutions on the non-polar face were less than those peptide analogs with the same number of D-amino acid substitutions on the polar face, it is clear that the amino acid residues on the non-polar face may be more important for stabilizing the α-helical structure than residues on the polar face.
# The secondary structures of the peptides were examined using a Jasco J-810 CD spectrometer (Jasco, Easton, MD, USA) at 25 °C as described previously. […] The mean residue molar ellipticities were calculated according to the equation [θ] = θ/10lCMn, in which, θ represents the ellipticity in millidegrees, l is the optical path length of the cuvette in centimeters, CM is the peptide concentration in mol/L, and n is the number of residues in the peptide. The mean residue molar ellipticities at 222 nm, [θ]222 (degree·cm^2·dmol^−1), were used to calculate the relative helical content of the peptides.
# S. aureus ATCC25923 = assay: Antimicrobial activity, microtiter dilution MIC; format: cell-based, Staphylococcus aureus; conditions: G+; MH medium, 5 × 10^5 CFU/mL, 37 °C, 24 h, triplicate
# Procedure: (§1) The antimicrobial activity of the peptides was determined by the standard microtiter dilution method and indicated as MIC (minimal inhibitory concentration) as described previously. Briefly, bacteria were cultured in Mueller–Hinton (MH) medium overnight at 37 °C, diluted to a final inoculum of 5 × 10^5 colony-forming units (CFU)/mL with MH and loaded into 96-well microtiter plates (90 μL/well) with serial dilution of peptides (10 μL/well), with a further incubation at 37 °C for 24 h. MIC was expressed as the lowest peptide concentration that inhibited the growth of bacteria. The antimicrobial assays were repeated in triplicate.
# S. epidermidis ATCC12228 = assay: Antimicrobial activity, microtiter dilution MIC; format: cell-based, Staphylococcus epidermidis; conditions: G+; MH medium, 5 × 10^5 CFU/mL, 37 °C, 24 h, triplicate
# Procedure: as §1
# P. aeruginosa ATCC27853 = assay: Antimicrobial activity, microtiter dilution MIC; format: cell-based, Pseudomonas aeruginosa; conditions: G−; MH medium, 5 × 10^5 CFU/mL, 37 °C, 24 h, triplicate
# Procedure: as §1
# E. coli ATCC25922 [3] = assay: Antimicrobial activity, microtiter dilution MIC; format: cell-based, Escherichia coli; conditions: G−; MH medium, 5 × 10^5 CFU/mL, 37 °C, 24 h, triplicate
# Procedure: as §1
# [4] = tested on: human red blood (hRBC) cells; assay: Hemolytic activity assay; format: cell-based; conditions: 2% human RBC in PBS, 37 °C, 2 h, absorbance 578 nm, triplicate
# Procedure: The […] of the peptides was measured by a hemolytic activity assay as described previously. Briefly, healthy human RBCs were collected using an anticoagulation tube with EDTAK2 and centrifuged at 1000 rpm for 5 min. The erythrocytes were washed three times, then diluted to a concentration of 2% in phosphate-buffered saline (PBS). The peptides were serially diluted in PBS and 70 μL of the peptide solutions and 2% RBC suspension were added simultaneously to each well of a 96-well plate (round bottom) for a further incubation at 37 °C for 2 h. Then, the plates were centrifuged for 10 min at 3000 rpm and the supernatant (90 μL) was transferred to a 96-well plate (flat bottom). The absorbance of the supernatant was measured on a microplate reader at 578 nm. Erythrocytes in PBS and distilled water were used as the negative (0%) and positive (100%) controls, respectively. The hemolytic activity was calculated as the percentage of experimental group over positive control (100%), after subtraction of negative control (0%). The hemolytic assays were repeated in triplicate.
# BxPC-3 = assay: MTT cell viability assay; format: cell-based, human; conditions: BxPC-3, MTT, 24 h; mean ± SEM of three independent determinations
# Procedure: (§2) HeLa, MIA PaCa-2, HPAC, and Bxpc-3 cells were maintained in Dulbecco’s modified Eagle medium) with 10% fetal bovine serum, penicillin (100 U/mL), and streptomycin ([…]) in a humid atmosphere at 37 °C with 5% CO2. The effect of the peptides on the survival of HeLa, MIA PaCa-2, HPAC, and Bxpc-3 cells was determined by 3-(4,5-dimethyl-2-thiazolyl)-2,5-diphenyl-2H-tetrazolium bromide (MTT) assay, as described in a previous study. Briefly, cells were seeded in 96-well plates at a density of 5000 per well. After overnight incubation, cells were incubated, in the absence, or presence of various concentrations of peptides for 24 h. Then, the formazan crystals formed by MTT were dissolved with dimethyl sulfoxide (DMSO) and the absorbance was determined at 492 nm with a microplate reader (GF-M3000; Gaomi Caihong Analytical Instruments Co., Shandong, China). The results were expressed as IC50 values, representing the concentration at which cell viability was reduced by 50%. The cytotoxicity assays were repeated in triplicate.
# HPAC = assay: MTT cell viability assay; format: cell-based, human; conditions: 24 h, mean ± SEM of three independent determinations
# Procedure: as §2
# HeLa = assay: MTT cell viability assay; format: cell-based, human; conditions: 24 h, mean ± SEM of three independent determinations
# Procedure: as §2
# MIA PaCa-2 = assay: MTT cell viability assay; format: cell-based, human; conditions: MIA PaCa-2, MTT, 24 h; mean ± SEM of three independent determinations
# Procedure: as §2
# E. coli ATCC25922 [5] = assay: Outer membrane permeability assay (NPN uptake); format: cell-based, Escherichia coli; conditions: 16 μM peptide, 10 min, excitation 350 nm, emission 420 nm
# Text: To explore the potential role of the helicity of the peptides in damaging cell membranes, we investigated the disruption of the outer membrane of Escherichia coli (E. coli) by quantifying the fluorescence intensity of 1-N-phenylnaphthylamine (NPN), which is a hydrophobic fluorescent probe. The intensity of NPN is weak in a hydrophilic environment. The fluorescence intensity of NPN gradually increases as it is exposed to a more hydrophobic environment due to damage to the bacterial outer membrane by MAPs.
# The outer membrane permeability of the peptides against E. coli ATCC25922 was evaluated using the hydrophobic fluorescent probe NPN, as performed previously. In brief, E. coli was cultured in LB medium at 37 °C until the absorbance of the bacterial suspension at 600 nm was 0.4–0.6, the bacterial pellet was collected by centrifugation and resuspended in a reaction buffer (pH 7.4, 5 mM HEPES, 5 mM NaN3, 0.25 mM NPN) until the absorbance at 600 nm was 0.5. Then, an aliquot of the peptide sample and the bacterial suspension were co-incubated to give a final peptide concentration of 16 μM. The same volume of reaction buffer was used as the negative control. A Shimadzu RF-5301 PC fluorescent spectrometer (excitation wavelength of 350 nm, emission wavelength of 420 nm) was used to collect data continuously for 10 min.
compound,measurement,setting,value
CC[C@H](C)[C@H](NC(=O)[C@H](C)NC(=O)[C@H](CCCCN)NC(=O)[C@H](CC(C)C)NC(=O)[C@H](C)NC(=O)[C@@H](NC(=O)[C@H](Cc1c[nH]cn1)NC(=O)[C@H](CC(C)C)NC(=O)[C@@H](NC(=O)[C@@H](NC(=O)[C@@H](CCCCN)NC(=O)[C@H](CCCCN)NC(=O)[C@H](C)NC(=O)[C@H](CO)NC(=O)[C@H](CCCCN)NC(=O)[C@H](Cc1ccccc1)NC(=O)[C@@H](NC(=O)[C@H](CCCCN)NC(=O)[C@H](CC(C)C)NC(=O)[C@H](Cc1ccccc1)NC(=O)[C@H](CO)NC(=O)[C@H](CCCCN)NC(=O)[C@H](Cc1c[nH]c2ccccc12)NC(=O)[C@H](CCCCN)NC(C)=O)[C@@H](C)O)[C@@H](C)O)C(C)C)[C@@H](C)O)C(=O)N[C@@H](CO)C(=O)N[C@@H](CO)C(N)=O [Peptide K14D],"tR (RP-HPLC retention time), relative hydrophobicity",[1],41.93 min
same,"[θ]222, benign","[2]; CD, KP buffer (100 mM KCl, 50 mM KH2PO4/K2HPO4, pH 7.4), 75 μM peptide, 25 °C",−2223.13 degree·cm^2·dmol^−1
same,"[θ]222, 50% TFE","[2]; CD, KP buffer with 50% TFE, 75 μM peptide, 25 °C","−38,897.2 degree·cm^2·dmol^−1"
same,"α-Helix (%), 50% TFE (relative helicity)","[2]; KP buffer with 50% TFE, relative to molar ellipticity of V13K in 50% TFE",76.99%
same,"α-Helix (%), benign","[2]; KP buffer, relative to molar ellipticity of V13K in 50% TFE",4.4%
same,MIC,S. aureus ATCC25923,32 µM
same,MIC,S. epidermidis ATCC12228,16 µM
same,MIC,P. aeruginosa ATCC27853,16 µM
same,MIC,E. coli ATCC25922 [3],32 µM
same,MHC (minimal hemolytic concentration),[4],125 µM
same,IC50,BxPC-3,20 ± 0.8 µM
same,IC50,HPAC,7.2 ± 5.2 µM
same,IC50,HeLa,15.6 ± 4.1 µM
same,IC50,MIA PaCa-2,17.9 ± 2.3 µM
same,"Outer membrane permeabilization, NPN fluorescence intensity",E. coli ATCC25922 [5],enhanced
